Laboratory results from article PMC8333425, “Discovery of a dual Ras and ARF6 inhibitor from a GPCR endocytosis screen” (Nature Communications, 2021).
Values joined by “and” are separate entries in the source; they are usually repeats but may differ in a detail not shown here. Identical values can stand only once.

Experiments:
Format in all cases: cell-based, human
AT1R = assay: BRET recording of AT1R removal from the PM (AT1R-RlucII / rGFP-CAAX); conditions: for AngII-promoted BRET, AT1R removal from the PM: Comp 21 50 μM, individual experiments
Experimental: HEK293SL cells were seeded at a density of 7.5 × 10^5 cells per 100-mm dish and 24 h later, transiently transfected as such. For receptor internalization experiments, cells were transfected with 0.12 μg AT1R-RlucII, B2R-RlucII, or β2AR-RlucII and 0.48 μg of either rGFP-CAAX (to assess removal from the PM) or rGFP-FYVE (to assess accumulation in the endosomes). For β-arrestin recruitment assays, cells were transfected with 0.48 μg of receptor-YFP along with 0.12 μg of β-arrestin-RlucII. For β-arrestin/AP-2 binding experiments, cells were transfected with 1 μg Flag-AT1R, 1 μg β2-Adaptin-YFP, and 0.12 μg β-arrestin2-RlucII. For G protein activation, cells were transfected with 3 μg of sp-Flag-AT1R along with either 4.5 μg of the Gαq-polycistronic BRET sensor or 0.24 μg of the Gαi3-RlucII and 0.6 μg of GFP10-Gγ2 and Gβ1 sensors or 0.12 μg PKN-RBD-RlucII and 0.48 μg of rGFP-CAAX. For PKC activation, cells were transfected with 3 μg of sp-Flag-AT1R and 0.18 μg of the PKC sensor. For GTPase activation experiments, cells were transfected with 1 μg Flag-AT1R, 0.48 μg of rGFP-CAAX, and either 0.12 μg of GGA3-PBD-RlucII, PAK-CRIB-RlucII or Raf-RBD-RlucII. For biosensor validation experiments, cells were additionally transfected with 500 ng Flag-K-Ras-WT, Flag-K-Ras-G12V, Flag-K-Ras-SOS-CAAX, HA-ARF6-WT, HA-ARF6-T27N, Myc-Rac1-WT, Myc-Rac1-Q61L or Myc-Rac1-T17N. For PI3K/Akt activation experiments, cells were transfected with 0.48 μg of rGFP-CAAX and 0.12 μg of Akt (PH)-RlucII. After 18 h of transfection, the media was replaced and cells were divided for subsequent experiments. Cells were detached and seeded onto poly-L-ornithine-coated 96-well flat white bottom plates (BrandTech Scientific) at a density of 2.5 × 10^4 cells per well in media. The next day, cells were washed once with Tyrode’s buffer (140 mM NaCl, 2.7 mM KCl, 1 mM CaCl2, 12 mM NaHCO3, 5.6 mM D-glucose, 0.5 mM MgCl2, 0.37 mM NaH2PO4, 25 mM HEPES, pH 7.4) and left in Tyrode’s buffer. For kinetics of β-arrestin recruitment or β-arrestin binding to receptor and AP-2 experiments, cells were serum starved for 30 min, pretreated with 21 (50 µM) or Barbadin (100 µM) for 30 min, stimulated with 100 nM AngII or 1 µM BK and BRET signals were monitored at indicated times using a Victor X Light plate reader (PerkinElmer). Coelenterazine H (final concentration of 5 µM) was added 3–5 min prior to BRET measurements. Filter set was 460/80 nm and 535/30 nm for detecting the RlucII Renilla luciferase (donor) and YFP (acceptor) light emissions, respectively. The BRET ratio was determined by calculating the ratio of the light emitted by YFP over the light emitted by the RlucII. For G protein activation, cells were serum starved, pretreated with compounds for 30 min, stimulated with 100 nM AngII for 2 min (Gαq, Gαi3, and Rho sensors) or 5 min (PKC sensor). For the kinetics of GTPase and PI3K/Akt activation, cells were serum starved, pretreated with 21 (50 µM) or Wortmannin (200 nM) for 30 min, stimulated with ligand (100 nM AngII or 100 ng/ml EGF) and BRET signals were monitored at indicated times. […] BRET signals were monitored using a Synergy2 (BioTek) microplate reader and coelenterazine 400a (final concentrations of 5 µM) added 3–5 min prior to BRET measurements. […] The BRET ratio was determined by calculating the ratio of the light emitted by rGFP/GFP10 over the light emitted by the RlucII.

Gαi3 = Gαi3 BRET sensor, AT1R-mediated
Experimental: HEK293SL cells were seeded at a density of 7.5 × 10^5 cells per 100-mm dish and 24 h later, transiently transfected as such. For receptor internalization experiments, cells were transfected with 0.12 μg AT1R-RlucII, B2R-RlucII, or β2AR-RlucII and 0.48 μg of either rGFP-CAAX (to assess removal from the PM) or rGFP-FYVE (to assess accumulation in the endosomes). For β-arrestin recruitment assays, cells were transfected with 0.48 μg of receptor-YFP along with 0.12 μg of β-arrestin-RlucII. For β-arrestin/AP-2 binding experiments, cells were transfected with 1 μg Flag-AT1R, 1 μg β2-Adaptin-YFP, and 0.12 μg β-arrestin2-RlucII. […] For kinetics of β-arrestin recruitment or β-arrestin binding to receptor and AP-2 experiments, cells were serum starved for 30 min, pretreated with 21 (50 µM) or Barbadin (100 µM) for 30 min, stimulated with 100 nM AngII or 1 µM BK and BRET signals were monitored at indicated times using a Victor X Light plate reader (PerkinElmer). […] The BRET ratio was determined by calculating the ratio of the light emitted by YFP over the light emitted by the RlucII. […] For the kinetics of GTPase and PI3K/Akt activation, cells were serum starved, pretreated with 21 (50 µM) or Wortmannin (200 nM) for 30 min, stimulated with ligand (100 nM AngII or 100 ng/ml EGF) and BRET signals were monitored at indicated times. […]

BRAF = assay: Western blot of ERK1/2 phosphorylation induced by BRAF (BRAF-WT / BRAF-V600E)
Experimental: HEK293SL cells (10^5 cells per well) were seeded in a poly-L-lysine-coated six-well plate and transiently transfected with 3 μg Flag-AT1R, HA-B2R or HA-β2AR and/or 500 ng Flag-MEK1-WT, Flag-MEK1-DD, Flag-BRAF-WT, Flag-BRAF-V600E, Flag-K-Ras-WT, Flag-K-Ras-G12V, HA-ARF6-WT, or HA-ARF6-T27N. Gαq/11 KO and βarr1/2 KO cells were seeded onto 100 mm dishes at a density of 10^6 cells per dish. Next day, cells were transfected with 3 μg AT1R alone or along with 500 ng of β-arrestin2 using PEI. After 18 h of transfection, cells were detached and re-seeded onto poly-L-lysine coated 12-well plates (~1.5–2 × 10^5cells/well) for subsequent experiments. Forty-eight hours post transfection, in a 37 °C water bath, cells were serum-starved for 30 min, pretreated with DMSO (0.1%) or compound 21/Rasarfin (50 µM or at indicated concentrations) for 30 min, then stimulated or not with the indicated ligand [AngII (1 µM), BK (1 µM), Iso (10 µM) or EGF (100 ng/ml)] at indicated times. Cells were put on ice, washed with PBS and solubilized in 2x laemmli buffer (250 mM Tris–HCl pH 6.8, 2% SDS (w/v), 10% glycerol (v/v), 0.01% bromophenol blue (w/v) and 5% β-mercaptoethanol (v/v)) by heating at 65 °C for 15 min. Lysates were resolved on 10 or 14% SDS-PAGE, transferred to nitrocellulose membranes and immunoblotted for p-ERK1/2, ERK1/2, p-Akt, Akt, HA, Myc, β-actin or FLAG. ImageLab 5.2 software was used to quantify the digital blots as fold of the phosphorylated protein over total protein, which were then normalized as indicated in the figure legends. Uncropped immunoblots are provided in the Source Data file.

For `CC(C)C(=O)N1CCN(c2ccc(NC(=O)c3cc4ccccc4o3)cc2Cl)CC1` [Compound 21], the “AngII-bound AT1R removal from the PM” value (AT1R; 50 μM) was “slowed down and decreased the extent of AngII-bound AT1R removal from the PM”, the “AngII-promoted BRET, AT1R removal from the PM” value (“AngII-promoted BRET” for short) (AT1R; time 0 min) was 0 and the “AngII-promoted BRET” value (AT1R; time 5 min) was -0.084 and -0.3663 and -0.1717 and -0.07933. The “AngII-promoted BRET” value (AT1R; time 15 min) was -0.132 and -0.4823 and -0.452 and -0.243, the “AngII-promoted BRET” value (AT1R; time 30 min) was -0.166 and -0.515 and -0.398 and -0.3753 and the “Gαi3 engagement by AT1R (BRET sensor)” value (Gαi3; 50 μM) was “lack of inhibitory effects”. The “Gi3 BRET sensor signal (S_Fig.4b), single experiments” value (Gαi3; listed as Comp 21) was 0.11 and 0.122, the “ERK1/2 activation induced by overexpression of BRAF-V600E” value (BRAF; 50 μM) was “nor did it block ERK1/2 activation” and the “ERK1/2 phosphorylation relative to mock (S_Fig.4d)” value (BRAF; Flag-BRAF-V600E, listed as Comp 21) was 3.464 and 4.631 and 3.5221 and 2.836. For the same molecule, the “ERK1/2 phosphorylation relative to mock (S_Fig.4d)” value (BRAF; Flag-BRAF-WT, listed as Comp 21) was 1 and 1.273 and 1.416 and the “ERK1/2 phosphorylation relative to mock (S_Fig.4d)” value (BRAF; mock) was 1.
